Measurements published in PubChem BioAssay AID2060484 (Molecular Pharmacology Branch, DTP, NCI, 2025).

Tested on: SUM149PT spheroids with HUVEC/MSC, viability
Assay: Anticancer human tumor SUM149PT cell line growth inhibition [GQUAD];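 also: spheroids exposed to drugs for seven days before readout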;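 as to viability, T/C: percent viability relative to DMSO vehicle control taken as 100%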
Settings: for IC50: curve of first compound; for viability, T/C: stronger effect = lower value
Source text: DNA G-quadruplex Stabilizer Agents in Combinations in Complex Spheroids
A high-throughput screen of multi-cell type tumor spheroids was designed to identify active combinations of DNA G-quadruplex stabilizer agents and targeted small molecules. Complex spheroids include a stromal component modeled by human endothelial cells (HUVEC) and fibroblasts modeled by human mesenchymal stem cells (MSCs). The concentration ranges selected for each drug and investigational agent were based upon clinically achievable concentrations if the clinical Cmax of the agent was known.
Compounds. The drugs and investigational agents: pidnarulex (CX-5461; NSC782164), APTO-253 (NSC789042), BRACO-19 (NSC847499), peposertib (NSC802822), ceralasertib (NSC780249), elimusertib (NSC800525), camonsertib (NSC841442), AZD-1390 (NSC803789), olaparib (NSC753686), talazoparib (NSC767125), ART-558 (NSC835418), sotorasib (NSC818433), MRTX-1133 (NSC836407), SN-38 (NSC673596), topotecan (NSC609699), etoposide (NSC141540), doxorubicin (NSC123127), gemcitabine (NSC613327), 5-fluorouracil (NSC19893), paclitaxel (NSC125973), vemurafenib (NSC761431), panobinostat (NSC761190), R-306465 (JNJ-16241199; NSC773264), adavosertib (NSC754352), TP-3654 (NSC805149), carboplatin (NSC241240), KSQ-4279 (NSC840948), and staurosporine (NSC755774) were obtained from the National Cancer Institute (NCI) Developmental Therapeutics Program Chemical Repository (34). The FDA-approved anticancer drug set is available from the NCI Developmental Therapeutics Program. […] The stock solutions were prepared in dimethyl sulfoxide (DMSO, Sigma-Aldrich, St. Louis, MO, cat. D2650) at 800-fold the tested concentration and stored at -70 degrees C prior to their use. All drugs and investigational agents were tested over a range starting from a high concentration at or near the clinical Cmax and decreasing in half-log increments. If the clinical Cmax for an agent had not been determined, the highest concentration tested was 10 microM.
2.3 Cell Culture. All cells were maintained in an incubator at 37 degrees C and 5% CO2 with 95% humidity. The PDC lines were cultured according to standard operating procedures established by the NCI PDMR. All PDCs were thawed and cultured in Matrigel-coated flasks prepared with a working solution of 1X Ham's F-12 nutrient mix, without supplementation (Invitrogen, cat. 11765054), 100 U/mL penicillin-streptomycin (Invitrogen, cat. 15140122), and 2.5% Matrigel (Corning Inc., cat. 354248) for the first three passages. The 857933-349-R-J2-PDC line was cultured in 6C/Colon 1B media, which includes advanced DMEM/F-12 (Thermo Fisher Scientific, cat. 12634028), 10 mM HEPES (Thermo Fisher Scientific, cat. 15630080), 1X GlutaMAX supplement (Thermo Fisher Scientific, cat. 35050061), 0.1 mg/mL primocin (InvivoGen, cat. ant-pm-2), 10% defined fetal bovine serum, heat inactivated (HyClone Laboratories Inc., cat. SH30070.03HI), 50% L-WRN conditioned media (ATCC, cat. CRL-3276), 1.25 mM N-Acetyl-L-cysteine (Sigma-Aldrich, cat. A9165), 10 mM nicotinamide (Sigma-Aldrich, cat. N0636), 1X B-27 supplement (Thermo Fisher Scientific, cat. 17504044), 1X N-2 supplement (Thermo Fisher Scientific, cat. 17502048), 10 microM Y-27632 dihydrochloride (Tocris Bioscience, cat. 1254), and 50 ng/mL human EGF recombinant protein (Thermo Fisher Scientific, cat. PHG0311). The 485176-168-R4-J1-PDC line was cultured in Panc media, which includes all 6C/Colon 1B media components plus 100 ng/mL human FGF-10 (Thermo Fisher Scientific, cat. 100-26), 500 nM SB-431542 (Selleckchem, cat. S1067), and gastrin (Tocris, cat. 3006).
[…]

## Cn1ncnc1[C@H]1c2n[nH]c(=O)c3cc(F)cc(c23)N[C@@H]1c1ccc(F)cc1 + Cc1[nH]c2ccc(F)cc2c1-c1nc2c3cccnc3c3ncccc3c2[nH]1
Second compound 0.0316 µM
  IC50: > 316 nM
Second compound 0.1 µM
  IC50: > 316 nM
Second compound 0.316 µM
  IC50: 305 nM
Second compound 1 µM
  IC50: > 316 nM
Second compound 3.16 µM
  IC50: > 316 nM
Second compound 10 µM
  IC50: > 316 nM
Second compound 0.0316 µM, first compound 0.000999 µM
  viability, T/C: 105%
Second compound 0.0316 µM, first compound 0.00316 µM
  viability, T/C: 93.4%
Second compound 0.0316 µM, first compound 0.00999 µM
  viability, T/C: 103%
Second compound 0.0316 µM, first compound 0.0316 µM
  viability, T/C: 88%
Second compound 0.0316 µM, first compound 0.0999 µM
  viability, T/C: 69.8%
Second compound 0.0316 µM, first compound 0.316 µM
  viability, T/C: 57.3%
Second compound 0.1 µM, first compound 0.000999 µM
  viability, T/C: 90.4%
Second compound 0.1 µM, first compound 0.00316 µM
  viability, T/C: 96.2%
Second compound 0.1 µM, first compound 0.00999 µM
  viability, T/C: 87.6%
Second compound 0.1 µM, first compound 0.0316 µM
  viability, T/C: 86.9%
Second compound 0.1 µM, first compound 0.0999 µM
  viability, T/C: 73.2%
Second compound 0.1 µM, first compound 0.316 µM
  viability, T/C: 56.7%
Second compound 0.316 µM, first compound 0.000999 µM
  viability, T/C: 109%
Second compound 0.316 µM, first compound 0.00316 µM
  viability, T/C: 90.3%
Second compound 0.316 µM, first compound 0.00999 µM
  viability, T/C: 95.2%
Second compound 0.316 µM, first compound 0.0316 µM
  viability, T/C: 89.8%
Second compound 0.316 µM, first compound 0.0999 µM
  viability, T/C: 65.4%
Second compound 0.316 µM, first compound 0.316 µM
  viability, T/C: 50%
Second compound 1 µM, first compound 0.000999 µM
  viability, T/C: 94.6%
Second compound 1 µM, first compound 0.00316 µM
  viability, T/C: 94.5%
Second compound 1 µM, first compound 0.00999 µM
  viability, T/C: 96.3%
Second compound 1 µM, first compound 0.0316 µM
  viability, T/C: 88%
Second compound 1 µM, first compound 0.0999 µM
  viability, T/C: 66%
Second compound 1 µM, first compound 0.316 µM
  viability, T/C: 51%
Second compound 3.16 µM, first compound 0.000999 µM
  viability, T/C: 88.6%
Second compound 3.16 µM, first compound 0.00316 µM
  viability, T/C: 90.4%
Second compound 3.16 µM, first compound 0.00999 µM
  viability, T/C: 96.2%
Second compound 3.16 µM, first compound 0.0316 µM
  viability, T/C: 78%
Second compound 3.16 µM, first compound 0.0999 µM
  viability, T/C: 67.7%
Second compound 3.16 µM, first compound 0.316 µM
  viability, T/C: 50%
Second compound 10 µM, first compound 0.000999 µM
  viability, T/C: 85.3%
Second compound 10 µM, first compound 0.00316 µM
  viability, T/C: 77.7%
Second compound 10 µM, first compound 0.00999 µM
  viability, T/C: 88.8%
Second compound 10 µM, first compound 0.0316 µM
  viability, T/C: 81.8%
Second compound 10 µM, first compound 0.0999 µM
  viability, T/C: 65.4%
Second compound 10 µM, first compound 0.316 µM
  viability, T/C: 50.9%
